Laboratory results: patent US7368572B2, “Acetylene derivatives as inhibitors of histone deacetylase” (Pharmacyclics, Inc., priority 2003, dated 2008)
Structures can show the parent of a compound that is named as a salt.

Target: HDAC-1 (Homo sapiens, UniProt Q13547)
Test: Inhibition of HDAC in vitro (fluorogenic acetyl-Gly-Ala-(N-acetyl-Lys)-AMC / trypsin assay)
Type: biochemical
Conditions: HDAC-1 200 pM, 30 min preincubation, pH 7.4; inhibition constants obtained with BatchKi
Description: The HDAC inhibitory activity of the compounds of this invention in vitro was determined as follows.
Measurements were performed in a reaction volume of 100 μL using 96-well assay plates. HDAC-1 (200 pM final concentration) in reaction buffer (50 mM HEPES, 100 mM KCl, 0.001% Tween-20, 5% DMSO, pH 7.4) was mixed with inhibitor at various concentrations and allowed to incubate for 30 min, after which trypsin and acetyl-Gly-Ala-(N-acetyl-Lys)-AMC were added to final concentrations of 50 nM and 25 μM, respectively, to initiate the reaction. Negative control reactions were performed in the absence of inhibitor in replicates of eight.
The reactions were monitored in a fluorescence plate reader. After a 30 min lag time, the fluorescence was measured over a 30 min time frame using an excitation wavelength of 355 nm and a detection wavelength of 460 nm. The increase in fluorescence with time was used as the measure of the reaction rate. Inhibition constants were obtained using the program BatchKi (Kuzmic et al. Anal. Biochem. 286, 45-50, (2000)).

Chain of HDAC-1 (Q13547 whole entry, species assumed): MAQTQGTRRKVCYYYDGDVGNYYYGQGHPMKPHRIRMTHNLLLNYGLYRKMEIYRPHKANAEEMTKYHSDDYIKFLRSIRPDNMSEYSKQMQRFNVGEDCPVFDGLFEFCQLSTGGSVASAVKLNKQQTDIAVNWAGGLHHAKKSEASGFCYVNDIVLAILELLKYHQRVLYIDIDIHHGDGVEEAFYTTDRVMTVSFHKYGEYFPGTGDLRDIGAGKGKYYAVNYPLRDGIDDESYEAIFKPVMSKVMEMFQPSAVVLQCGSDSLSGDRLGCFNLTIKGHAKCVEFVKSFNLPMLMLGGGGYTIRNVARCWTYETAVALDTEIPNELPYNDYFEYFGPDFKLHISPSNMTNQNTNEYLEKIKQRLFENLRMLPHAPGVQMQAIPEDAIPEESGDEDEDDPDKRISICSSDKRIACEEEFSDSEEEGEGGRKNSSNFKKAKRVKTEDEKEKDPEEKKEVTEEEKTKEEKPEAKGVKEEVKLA

A Ki of 0.022 µM was found for CN(C)Cc1c(C(=O)NCC#Cc2ccc(C(=O)NO)cc2)oc2ccccc12 [Compound 22, Table I, N-hydroxy-4-[3-(3-N,N-dimethylaminomethylbenzofiuran-2-ylcarbonylamino)prop-1-ynyl]-benzamide hydrochloride] in this work.
